Assay results taken from patent publication US9597314B2, “Beta-lactamylalkanoic acids for treating premenstrual disorders” (AZEVAN PHARMACEUTICALS, INC., priority 2005, dated 2017).

Biological target: V1a (Homo sapiens, UniProt P37288)
Assay: Human vasopression V1a receptor binding assay
Parameters: host or cells: CHO cells (hV1a cell line), whole adherent cells
Settings: hV1a cell line (CHO); for Ki: Table 18; for IC50: 1 nM 3H-AVP, Table 17, read-out: V1a Binding Affinity (IC50 (nM))
Experimental: Human vasopression V1a receptor binding assay. A cell line expressing the human V1a receptor in CHO cells (henceforth referred to as the hV1a cell line) was obtained from Dr. Michael Brownstein, NIMH, Bethesda, Md., USA. The hV1a cDNA sequence is described by Thibonnier et al., Journal of Biological Chemistry, 269, 3304-3310 (1994), and the expression method was the same as described by Morel et al. (1992). The hV1a cell line was grown in alpha-MEM with 10% fetal bovine serum and 250 ug/ml G418 (Gibco, Grand Island, N.Y., USA). For competitive binding assay, hV1a cells were plated into 6-well culture plate at 1:10 dilution from a confluency flask, and maintained in culture for at least two days. Culture medium was then removed, cells were washed with 2 ml binding buffer (25 mM Hepes, 0.25% BSA, 1×DMEM, PH=7.0). To each well, 990 μl binding buffer containing 1 nM 3H-AVP was added, and followed by 10 μl series diluted Example compounds dissolved in DMSO. […] 100 nM cold AVP (Sigma) was used to assess non-specific binding. Cells were incubated for 45 minutes at 37° C., assay mixture was removed and each well was washed three times with PBS (pH=7.4). 1 ml 2% SDS was added per well and plates were let sit for 30 minutes. The whole content in a well was transferred to a scintillation vial. Each well was rinsed with 0.5 ml PBS which was then added to the corresponding vial. Scintillation fluid (Ecoscint, National Diagnostics, Atlanta, Ga.) was then added at 3 ml per vial. Samples were counted in a liquid scintillation counter (Beckman LS3801). IC50 values were calculated by Prism Curve fitting software.
All of the alkanedioic esters and amides exemplified in the foregoing examples dissolved in DMSO were tested in this assay. Binding curves were generated according to methods described by Thibonnier et al. (1994). [^3H]-AVP was added to the hV1a cell cultures followed by 10 fold dilutions of each test compound.

V1a, sequence (P37288 whole entry): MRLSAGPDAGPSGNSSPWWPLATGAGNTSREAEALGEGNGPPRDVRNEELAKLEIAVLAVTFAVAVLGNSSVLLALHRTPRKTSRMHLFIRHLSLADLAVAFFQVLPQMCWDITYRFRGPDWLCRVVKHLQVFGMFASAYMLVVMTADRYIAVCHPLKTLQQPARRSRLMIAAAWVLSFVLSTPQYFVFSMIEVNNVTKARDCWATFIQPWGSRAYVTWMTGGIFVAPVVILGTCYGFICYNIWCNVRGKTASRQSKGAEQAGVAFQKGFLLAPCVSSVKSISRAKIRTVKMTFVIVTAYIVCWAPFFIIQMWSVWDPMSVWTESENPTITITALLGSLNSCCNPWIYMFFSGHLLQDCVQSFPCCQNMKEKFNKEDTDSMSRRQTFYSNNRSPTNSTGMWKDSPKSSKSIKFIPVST

SMILES	Ki [nM]	IC50 [nM]
O=C(NCc1cccc(C(F)(F)F)c1)C(C(=O)N1CCC(N2CCCCC2)CC1)N1C(=O)[C@@H](N2C(=O)OC[C@@H]2c2ccccc2)[C@H]1/C=C/c1ccccc1 (mixture of isomers) [Example 37]	3.39	–
O=C(NCc1cccc(C(F)(F)F)c1)C(C(=O)N1CCN(CCc2ccccc2)CC1)N1C(=O)[C@@H](N2C(=O)OC[C@@H]2c2ccccc2)[C@H]1/C=C/c1ccccc1 (mixture of isomers) [Example 38]	85	–
O=C(NCc1cccc(C(F)(F)F)c1)C(C(=O)NC1CCN(Cc2ccccc2)CC1)N1C(=O)[C@@H](N2C(=O)OC[C@@H]2c2ccccc2)[C@H]1/C=C/c1ccccc1 (mixture of isomers) [Example 39]	13.3	–
CCCCN1CCN(C(=O)C(C(=O)NCc2cccc(C(F)(F)F)c2)N2C(=O)[C@@H](N3C(=O)OC[C@@H]3c3ccccc3)[C@H]2/C=C/c2ccccc2)CC1 (mixture of isomers) [Example 40]	6.5	–
CC(C)N1CCN(C(=O)C(C(=O)NCc2cccc(C(F)(F)F)c2)N2C(=O)[C@@H](N3C(=O)OC[C@@H]3c3ccccc3)[C@H]2/C=C/c2ccccc2)CC1 (mixture of isomers) [Example 41]	18.2	–
O=C(NCc1cccc(C(F)(F)F)c1)C(C(=O)N1CCC(CCN2CCCCC2)CC1)N1C(=O)[C@@H](N2C(=O)OC[C@@H]2c2ccccc2)[C@H]1/C=C/c1ccccc1 (mixture of isomers) [Example 42A]	1.17	1.77
O=C(NCc1cccc(C(F)(F)F)c1)C(C(=O)N1CCN(C2CCCCC2)CC1)N1C(=O)[C@@H](N2C(=O)OC[C@@H]2c2ccccc2)[C@H]1/C=C/c1ccccc1 (mixture of isomers) [Example 42]	26.4	–
CCCCN1CCN(C(=O)CCC(C(=O)NCc2cccc(C(F)(F)F)c2)N2C(=O)C(N3C(=O)OCC3c3ccccc3)C2C=Cc2ccccc2)CC1 (single isomer, unassigned) [Example 103]	0.49	–
O=C(C[C@@H](C(=O)NCc1cccc(C(F)(F)F)c1)N1C(=O)[C@@H](N2C(=O)OC[C@@H]2c2ccccc2)[C@H]1/C=C/c1ccccc1)NC1CCN(Cc2ccccc2)CC1 [Example 63]	1.13	–
O=C(NCc1cccc(C(F)(F)F)c1)[C@H](CC(=O)N1CCCN(Cc2ccccc2)CC1)N1C(=O)[C@@H](N2C(=O)OC[C@@H]2c2ccccc2)[C@H]1/C=C/c1ccccc1 [Example 82]	5.12	–
O=C(C[C@@H](C(=O)NCc1cccc(C(F)(F)F)c1)N1C(=O)[C@@H](N2C(=O)OC[C@@H]2c2ccccc2)[C@H]1/C=C/c1ccccc1)N[C@H]1CCN(Cc2ccccc2)C1 [Example 85]	3.6	–
O=C(NCc1cccc(C(F)(F)F)c1)[C@H](CC(=O)N1CCC(CCN2CCCCC2)CC1)N1C(=O)[C@@H](N2C(=O)OC[C@@H]2c2ccccc2)[C@H]1/C=C/c1ccccc1 [Example 86A]	6	9.79
O=C(NCc1cccc(C(F)(F)F)c1)[C@H](CCC(=O)N1CCN(Cc2ccccc2)CC1)N1C(=O)[C@@H](N2C(=O)OC[C@@H]2c2ccccc2)[C@H]1/C=C/c1ccccc1 [Example 95]	1.08	–
O=C(NCc1cccc(C(F)(F)F)c1)[C@H](CCC(=O)N1CCN(Cc2ccc3c(c2)OCO3)CC1)N1C(=O)[C@@H](N2C(=O)OC[C@@H]2c2ccccc2)[C@H]1/C=C/c1ccccc1 [Example 96]	2.66	–

Continued, values first:

Ki [nM]	IC50 [nM]	SMILES
1.25	2.04	O=C(C(COCc1ccccc1)N1C(=O)[C@@H](N2C(=O)OC[C@@H]2c2ccccc2)[C@H]1/C=C/c1ccccc1)N1CCN(C2CCCCC2)CC1 (mixture of isomers) [Example 232D]
1.13	–	CC(C)N1CCN(C(=O)CCC(C(=O)NCc2cccc(C(F)(F)F)c2)N2C(=O)C(N3C(=O)OCC3c3ccccc3)C2C=Cc2ccccc2)CC1 (single isomer, unassigned) [Example 104]
1.14	1.86	O=C(NC1CCCc2ccccc21)C(CCC(=O)N1CCN(C2CCCCC2)CC1)N1C(=O)C(N2C(=O)OCC2c2ccccc2)C1C=Cc1ccccc1 (single isomer, unassigned) [Example 214]
0.38	0.61	O=C(NC1CCCc2ccccc21)C(CCC(=O)N1CCN(C2CCCCC2)CC1)N1C(=O)C(N2C(=O)OCC2c2ccccc2)C1C=Cc1ccccc1 (single isomer, unassigned) [Example 215]
0.82	–	O=C(NCc1cccc(C(F)(F)F)c1)[C@H](CCC(=O)N1CCN(CCC2CCCCC2)CC1)N1C(=O)[C@@H](N2C(=O)OC[C@@H]2c2ccccc2)[C@H]1/C=C/c1ccccc1 [Example 111]
0.8	–	O=C(NCc1cccc(C(F)(F)F)c1)[C@H](CCC(=O)N1CCN(CCN2CCOCC2)CC1)N1C(=O)[C@@H](N2C(=O)OC[C@@H]2c2ccccc2)[C@H]1/C=C/c1ccccc1 [Example 112]
9.9	16.2	O=C(NCc1cccc(C(F)(F)F)c1)[C@H](CCC(=O)N1CCC(CCN2CCCCC2)CC1)N1C(=O)[C@@H](N2C(=O)OC[C@@H]2c2ccccc2)[C@H]1/C=C/c1ccccc1 [Example 120A]
1.79	2.93	CCCN1CCN(C(=O)CC[C@@H](C(=O)NCc2cccc(C(F)(F)F)c2)N2C(=O)[C@@H](N3C(=O)OC[C@@H]3c3ccccc3)[C@H]2/C=C/c2ccccc2)CC1 [Example 120B]
0.46	–	O=C(NCc1cccc(C(F)(F)F)c1)[C@H](CCC(=O)N1CCN(CC2CCCCC2)CC1)N1C(=O)[C@@H](N2C(=O)OC[C@@H]2c2ccccc2)[C@H]1/C=C/c1ccccc1 [Example 120]
3.9	6.3	O=C(NC1(c2ccccc2)CCCC1)[C@H](CC(=O)N1CCC(N2CCCCC2)CC1)N1C(=O)[C@@H](N2C(=O)OC[C@@H]2c2ccccc2)[C@H]1/C=C/c1ccccc1 [Example 132D]
7.9	12.9	O=C(NCc1cccc(C(F)(F)F)c1)[C@@H](CC(=O)N1CCC(CCN2CCCCC2)CC1)N1C(=O)[C@@H](N2C(=O)OC[C@@H]2c2ccccc2)[C@H]1/C=C/c1ccccc1 [Example 134A]
5.58	9.1	O=C(C[C@H](C(=O)NCc1cccc(C(F)(F)F)c1)N1C(=O)[C@@H](N2C(=O)OC[C@@H]2c2ccccc2)[C@H]1/C=C/c1ccccc1)NC1CCN(Cc2ccccc2)CC1 [Example 134C]
3.7	6	O=C(NCc1cccc(C(F)(F)F)c1)[C@@H](CC(=O)N1CCC(CN2CCCCC2)CC1)N1C(=O)[C@@H](N2C(=O)OC[C@@H]2c2ccccc2)[C@H]1/C=C/c1ccccc1 [Example 134G]
3.25	5.29	CC(C)(NC(=O)[C@@H](CC(=O)N1CCC(N2CCCCC2)CC1)N1C(=O)[C@@H](N2C(=O)OC[C@@H]2c2ccccc2)[C@H]1/C=C/c1ccccc1)c1ccccc1 [Example 134J]
33	–	O=C(NCc1cccc(C(F)(F)F)c1)[C@@H](CCC(=O)N1CCN(CCc2ccccc2)CC1)N1C(=O)[C@@H](N2C(=O)OC[C@@H]2c2ccccc2)[C@H]1/C=C/c1ccccc1 [Example 136]
10.5	–	CCCCN1CCN(C(=O)CC[C@H](C(=O)NCc2cccc(C(F)(F)F)c2)N2C(=O)[C@@H](N3C(=O)OC[C@@H]3c3ccccc3)[C@H]2/C=C/c2ccccc2)CC1 [Example 137]
13	–	CC(C)N1CCN(C(=O)CC[C@H](C(=O)NCc2cccc(C(F)(F)F)c2)N2C(=O)[C@@H](N3C(=O)OC[C@@H]3c3ccccc3)[C@H]2/C=C/c2ccccc2)CC1 [Example 138]
